In US12606568B2, “SMARCA degraders and uses thereof” (Kymera Therapeutics, Inc., priority 2020, dated 2026):

What was measured:
Assay type in all cases: cell-based
SMARCA4 = target: T1, SMARCA4 (Homo sapiens, UniProt P51532); assay: SMARCA4 Western blot MV4-11 degradation; conditions: for Dmax: MV4-11, MV4-11 cells, read-out: SMARCA4 MSD MV411 degradation 24 h: average Dmax %; for Dmax / DC50: 24 h; for DC50: read-out: SMARCA4 MSD MV411 degradation 24 h: Mean external-Abs DC50
T1 construct: SMARCA2 and SMARCA4 protein degradation in MV4-11 cells; endogenous in cells; host or cells: MV4-11
T1 sequence (P51532 whole entry): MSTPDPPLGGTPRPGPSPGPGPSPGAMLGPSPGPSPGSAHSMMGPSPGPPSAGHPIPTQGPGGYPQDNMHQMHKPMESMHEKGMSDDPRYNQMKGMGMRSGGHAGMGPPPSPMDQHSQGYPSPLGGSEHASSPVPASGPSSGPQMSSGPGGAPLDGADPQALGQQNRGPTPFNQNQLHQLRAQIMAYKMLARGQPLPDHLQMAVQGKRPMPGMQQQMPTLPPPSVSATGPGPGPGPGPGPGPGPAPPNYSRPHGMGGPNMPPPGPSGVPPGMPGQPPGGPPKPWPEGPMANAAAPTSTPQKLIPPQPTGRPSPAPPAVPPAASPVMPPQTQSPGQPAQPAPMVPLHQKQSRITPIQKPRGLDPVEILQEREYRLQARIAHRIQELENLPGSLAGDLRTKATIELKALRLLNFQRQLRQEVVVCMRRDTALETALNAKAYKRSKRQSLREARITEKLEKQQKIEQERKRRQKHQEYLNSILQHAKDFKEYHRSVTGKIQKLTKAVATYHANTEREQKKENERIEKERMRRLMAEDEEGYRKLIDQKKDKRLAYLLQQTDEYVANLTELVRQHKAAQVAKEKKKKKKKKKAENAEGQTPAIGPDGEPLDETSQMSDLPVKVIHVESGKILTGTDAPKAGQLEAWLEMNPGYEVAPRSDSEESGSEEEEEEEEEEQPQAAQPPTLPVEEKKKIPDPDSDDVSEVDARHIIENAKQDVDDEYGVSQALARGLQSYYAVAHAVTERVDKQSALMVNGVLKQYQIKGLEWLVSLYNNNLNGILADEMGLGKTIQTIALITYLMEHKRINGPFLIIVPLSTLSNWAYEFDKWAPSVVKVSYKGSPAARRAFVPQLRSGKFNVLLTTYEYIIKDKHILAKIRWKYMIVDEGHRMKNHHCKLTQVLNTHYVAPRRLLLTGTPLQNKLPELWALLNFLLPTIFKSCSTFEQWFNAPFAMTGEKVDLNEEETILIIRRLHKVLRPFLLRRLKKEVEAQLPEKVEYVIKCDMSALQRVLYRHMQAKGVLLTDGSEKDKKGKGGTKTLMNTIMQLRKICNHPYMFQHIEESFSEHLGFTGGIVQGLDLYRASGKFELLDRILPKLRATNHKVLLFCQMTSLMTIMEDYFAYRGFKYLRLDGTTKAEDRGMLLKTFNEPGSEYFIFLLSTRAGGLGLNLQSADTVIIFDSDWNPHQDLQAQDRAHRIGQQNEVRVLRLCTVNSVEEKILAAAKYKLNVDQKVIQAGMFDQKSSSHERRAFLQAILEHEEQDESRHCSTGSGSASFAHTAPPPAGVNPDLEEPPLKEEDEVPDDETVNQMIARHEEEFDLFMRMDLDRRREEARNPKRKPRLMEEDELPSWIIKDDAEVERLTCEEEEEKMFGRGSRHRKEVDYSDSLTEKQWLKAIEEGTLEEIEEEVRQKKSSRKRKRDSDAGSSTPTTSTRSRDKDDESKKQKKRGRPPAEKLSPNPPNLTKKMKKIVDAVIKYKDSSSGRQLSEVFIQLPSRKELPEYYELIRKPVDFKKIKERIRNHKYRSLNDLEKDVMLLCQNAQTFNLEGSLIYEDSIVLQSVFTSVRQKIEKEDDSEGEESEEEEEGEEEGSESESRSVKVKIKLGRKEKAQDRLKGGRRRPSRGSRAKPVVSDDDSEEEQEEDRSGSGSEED

SMARCA2 [1] = target: T2, SMARCA2 (Homo sapiens, UniProt P51531); assay: MSD SMARCA2 degradation in A549 cell line; design: endogenous in cells; conditions: for Dmax: A549, A549 cells; for Dmax / DC50: 24 h; for DC50: read-out: SMARCA2 MSD A549 degradation 24 h: Average external-Abs DC50
T2 sequence (P51531 whole entry): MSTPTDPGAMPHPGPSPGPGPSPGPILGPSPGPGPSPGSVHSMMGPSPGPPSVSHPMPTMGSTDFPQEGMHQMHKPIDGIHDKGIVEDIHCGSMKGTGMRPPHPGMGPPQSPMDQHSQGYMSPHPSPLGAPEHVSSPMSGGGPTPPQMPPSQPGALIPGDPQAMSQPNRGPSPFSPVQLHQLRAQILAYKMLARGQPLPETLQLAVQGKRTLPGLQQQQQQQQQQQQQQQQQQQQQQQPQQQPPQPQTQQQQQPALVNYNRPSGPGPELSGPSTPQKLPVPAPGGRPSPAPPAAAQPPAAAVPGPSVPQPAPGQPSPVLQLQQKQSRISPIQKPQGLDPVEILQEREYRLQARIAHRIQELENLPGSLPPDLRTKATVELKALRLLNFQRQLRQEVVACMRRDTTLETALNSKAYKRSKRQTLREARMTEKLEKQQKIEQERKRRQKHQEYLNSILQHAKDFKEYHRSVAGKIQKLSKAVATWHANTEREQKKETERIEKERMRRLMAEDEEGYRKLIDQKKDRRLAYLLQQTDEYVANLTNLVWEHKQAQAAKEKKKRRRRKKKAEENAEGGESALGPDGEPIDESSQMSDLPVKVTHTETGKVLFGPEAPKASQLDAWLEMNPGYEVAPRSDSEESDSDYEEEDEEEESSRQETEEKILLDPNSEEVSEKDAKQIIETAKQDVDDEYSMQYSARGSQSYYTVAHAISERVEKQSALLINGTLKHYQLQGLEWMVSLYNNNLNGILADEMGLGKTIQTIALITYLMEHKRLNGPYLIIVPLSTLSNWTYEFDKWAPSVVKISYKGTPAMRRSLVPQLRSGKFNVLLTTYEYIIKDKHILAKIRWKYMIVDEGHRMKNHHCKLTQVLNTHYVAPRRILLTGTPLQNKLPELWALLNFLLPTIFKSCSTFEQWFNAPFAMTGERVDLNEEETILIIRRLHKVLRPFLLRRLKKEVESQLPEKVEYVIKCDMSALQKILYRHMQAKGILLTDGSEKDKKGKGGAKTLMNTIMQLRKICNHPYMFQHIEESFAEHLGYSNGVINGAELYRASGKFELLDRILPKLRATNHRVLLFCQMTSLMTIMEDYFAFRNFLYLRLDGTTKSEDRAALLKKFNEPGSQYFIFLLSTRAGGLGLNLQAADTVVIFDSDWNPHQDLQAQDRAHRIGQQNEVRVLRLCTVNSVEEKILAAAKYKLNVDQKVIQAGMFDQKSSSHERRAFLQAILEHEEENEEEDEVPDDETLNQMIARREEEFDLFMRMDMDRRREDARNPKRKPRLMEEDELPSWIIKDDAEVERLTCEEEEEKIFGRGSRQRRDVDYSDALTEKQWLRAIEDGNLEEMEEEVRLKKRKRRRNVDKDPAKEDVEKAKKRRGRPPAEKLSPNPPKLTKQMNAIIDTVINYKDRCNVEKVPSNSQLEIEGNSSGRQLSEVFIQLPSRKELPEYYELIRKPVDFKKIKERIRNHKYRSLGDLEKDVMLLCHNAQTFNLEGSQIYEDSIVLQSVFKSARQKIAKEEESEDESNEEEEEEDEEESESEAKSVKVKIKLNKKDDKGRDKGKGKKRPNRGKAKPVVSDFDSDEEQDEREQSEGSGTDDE
In short: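 A549 cells treated 24 h with compound, 3-fold series 1000 nM down to 0.152 nM plus DMSO. RIPA lysates captured on MSD plates, probed with rabbit anti-SMARCA2/BRM (1 µg/ml) then SULFO-TAG anti-rabbit, electrochemiluminescence read. DC50 and 24 h Dmax reported as letter bins.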

SMARCA2 [2] = target: T2, SMARCA2; assay: SMARCA2 Western blot MV4-11 degradation; design: SMARCA2 and SMARCA4 protein degradation in MV4-11 cells; endogenous in cells; host or cells: MV4-11; conditions: for Dmax: MV4-11, MV4-11 cells, read-out: SMARCA2 MSD MV411 degradation 24 h: average Dmax %; for Dmax / DC50: 24 h; for DC50: read-out: SMARCA2 MSD MV411 degradation 24 h: Mean external-Abs DC50

SMILES	Dmax (SMARCA4) [%]	DC50 (SMARCA4; MV4-11 cells) [nM]	Dmax (SMARCA2 [1]) [%]	DC50 (SMARCA2 [1]; A549 cells) [nM]	Dmax (SMARCA2 [2]) [%]	DC50 (SMARCA2 [2]; MV4-11 cells) [nM]	SMARCA4 MSD MV411 degradation 24 h: average Dmax % (SMARCA4; MV4-11 cells)	SMARCA2 MSD A549 degradation 24 h: Average Dmax % (SMARCA2 [1]; A549 cells)	SMARCA2 MSD MV411 degradation 24 h: average Dmax % (SMARCA2 [2]; MV4-11 cells)
Cc1ncsc1-c1ccc([C@H](C)NC(=O)[C@@H]2C[C@@H](O)CN2C(=O)[C@@H](NC(=O)[C@H]2CC3(C2)C[C@H](N2CCC(c4cnc(N5C6CCC5CN(c5cc(-c7ccccc7O)nnc5N)C6)nc4)CC2)C3)C(C)(C)C)cc1 (single isomer, unassigned) [I-1]	70 to 90	< 100	> 90	100 to 500	70 to 90	< 100			
Cc1ncsc1-c1ccc(CNC(=O)[C@@H]2C[C@@H](O)CN2C(=O)[C@@H](NC(=O)CN2CC3(C2)CN(C2CCC(c4cnc(N5C6CCC5CN(c5cc(-c7ccccc7O)nnc5N)C6)nc4)CC2)C3)C(C)(C)C)cc1 (stereo partly drawn) [I-76, (2S,4R)-1-((2S)-2-(2-(6-(4-(2-(3-(3-amino-6-(2-hydroxyphenyl)pyridazin-4-yl)-3,8-diazabicyclo[3.2.1]octan-8-yl)pyrimidin-5-yl)cyclohexyl)-2,6-diazaspiro[3.3]heptan-2-yl)acetamido)-3,3-dimethylbutanoyl)-4-hydroxy-N-(4-(4-methylthiazol-5-yl)benzyl)pyrrolidine-2-carboxamide]	> 90	< 100	> 90	501 to 1000	> 90	< 100			
Cc1ncsc1-c1ccc(C2(NC(=O)[C@@H]3C[C@@H](O)CN3C(=O)[C@@H](NC(=O)[C@H]3CC4(C3)C[C@H](N3CCC(c5cnc(N6C7CCC6CN(c6cc(-c8ccccc8O)nnc6N)C7)nc5)CC3)C4)C(C)(C)C)CC2)cc1 (single isomer, unassigned) [I-3]	70 to 90	< 100	> 90	< 100	> 90	< 100			
Cn1nccc1-c1ccc(CNC(=O)[C@@H]2C[C@@H](O)CN2C(=O)[C@@H](NC(=O)[C@H]2CC[C@H](c3cnc(N4C5CCC4CN(c4cc(-c6ccccc6O)nnc4N)C5)nc3)CC2)C(C)(C)C)cc1 [I-68, (2S,4R)-1-((2S)-2-((1r,4S)-4-(2-(3-(3-amino-6-(2-hydroxyphenyl)pyridazin-4-yl)-3,8-diazabicyclo[3.2.1]octan-8-yl)pyrimidin-5-yl)cyclohexanecarboxamido)-3,3-dime-thylbutanoyl)-4-hydroxy-N-(4-(1-methyl-1H-pyrazol-5-yl)benzyl)pyrrolidine-2-carboxamide]	> 90	< 100	> 90	< 100	> 90	< 100			
Cc1ncsc1-c1ccc(CNC(=O)[C@@H]2C[C@@H](O)CN2C(=O)[C@@H](NC(=O)C2CC3(C2)CN(C2CCC(c4cnc(N5C6CCC5CN(c5cc(-c7ccccc7O)nnc5N)C6)nc4)CC2)C3)C(C)(C)C)cc1 (stereo partly drawn) [I-7, 2-(4-(2-(3-(3-amino-6-(2-hydroxyphenyl)pyridazin-4-yl)-3,8-diazabicyclo[3.2.1]octan-8-yl)pyrimidin-5-yl)cyclohexyl)-N—((S)-1-((2S,4R)-4-hydroxy-2-((4-(4-methylthiazol-5-yl)benzyl)carbamoyl)pyrrolidin-1-yl)-3,3-dimethyl-1-oxobutan-2-yl)-2-azaspiro[3.3]heptane-6-carboxamide]	< 50	> 1000	70 to 90	501 to 1000	70 to 90	< 100			
Cn1nccc1-c1ccc(CNC(=O)[C@@H]2C[C@@H](O)CN2C(=O)[C@@H](NC(=O)[C@H]2CC3(C2)C[C@H](N2CCC(c4cnc(N5C6CCC5CN(c5cc(-c7ccccc7O)nnc5N)C6)nc4)CC2)C3)C(C)(C)C)cc1 (stereo partly drawn) [I-35, (2S,4R)-1-((2S)-2-(6-(4-(2-(3-(3-amino-6-(2-hydroxyphenyl)pyridazin-4-yl)-3,8-diazabicyclo[3.2.1]octan-8-yl)pyrimidin-5-yl)piperidin-1-yl)spiro[3.3]heptane-2-carboxamido)-3,3-dimethylbutanoyl)-4-hydroxy-N-(4-(1-methyl-1H-pyrazol-5-yl)benzyl)pyrrolidine-2-carboxamide]	50 to 70	> 1000	70 to 90	100 to 500	70 to 90	< 100			
Cc1ncsc1-c1ccc([C@H](C)NC(=O)[C@@H]2C[C@@H](O)CN2C(=O)[C@@H](NC(=O)[C@H]2CCC3(CC2)C[C@H](N2CCC(c4cnc(N5C6CCC5CN(c5cc(-c7ccccc7O)nnc5N)C6)nc4)CC2)C3)C(C)(C)C)cc1 (stereo in doubt) [I-15, (2S,4S)-1-((2S)-2-(2-(4-(2-(3-(3-amino-6-(2-hydroxyphenyl)pyridazin-4-yl)-3,8-diazabicyclo[3.2.1]octan-8-yl)pyrimidin-5-yl)piperidin-1-yl)spiro[3.5]nonane-7-carboxamido)-3,3-dimethylbutanoyl)-4-hydroxy-N—((S)-1-(4-(4-methylthiazol-5-yl)phenyl)ethyl)pyrrolidine-2-carboxamide]	50 to 70	> 1000	> 90	100 to 500	> 90	< 100			
Cc1ncsc1-c1ccc(CNC(=O)[C@@H]2C[C@@H](O)CN2C(=O)C(c2cc(OCCN3CCC(c4cnc(N5C6CCC5CN(c5cc(-c7ccccc7O)nnc5N)C6)nc4)CC3)no2)C(C)C)cc1 (stereo partly drawn) [I-50, (2S,4R)-1-(2-(3-(2-(4-(2-(3-(3-amino-6-(2-hydroxyphenyl)pyridazin-4-yl)-3,8-diazabicyclo[3.2.1]octan-8-yl)pyrimidin-5-yl)piperidin-1-yl)ethoxy)isoxazol-5-yl)-3-methylbutanoyl)-4-hydroxy-N-(4-(4-methylthiazol-5-yl)benzyl)pyrrolidine-2-carboxamide]	> 90	< 100	> 90	< 100	> 90	< 100			
Cc1ncsc1-c1ccc(CNC(=O)[C@@H]2C[C@@H](O)CN2C(=O)[C@@H](NC(=O)[C@H]2CC3(C2)C[C@H](N2CCN(c4cnc(N5C6CCC5CN(c5cc(-c7ccccc7O)nnc5N)C6)nc4)CC2)C3)C(C)(C)C)cc1 (single isomer, unassigned) [I-9]		> 1000		100 to 500		< 100	D (D (<50% degradation))	B (B (>70-90% o degradation))	B (B (>70-90% degradation))
Cc1ncsc1-c1ccc(CNC(=O)[C@@H]2C[C@@H](O)CN2C(=O)[C@@H](NC(=O)N2CC3(CC(N4CCC(c5cnc(N6C7CCC6CN(c6cc(-c8ccccc8O)nnc6N)C7)nc5)CC4)C3)C2)C(C)(C)C)cc1 [I-58, 6-(4-(2-(3-(3-amino-6-(2-hydroxyphenyl)pyridazin-4-yl)-3,8-diazabicyclo[3.2.1]octan-8-yl)pyrimidin-5-yl)piperidin-1-yl)-N—((S)-1-((2S,4R)-4-hydroxy-2-((4-(4-methylthiazol-5-yl)benzyl)carbamoyl)pyrrolidin-1-yl)-3,3-dimethyl-1-oxobutan-2-yl)-2-azaspiro[3.3]heptane-2-carboxamide]	50 to 70	100 to 500	> 90	< 100	> 90	< 100			
Cc1ncsc1-c1ccc(CNC(=O)[C@@H]2C[C@@H](O)CN2C(=O)C(c2cc(OCCN3CCC(O[C@H]4C[C@H](Oc5cc(N6C7CCC6CN(c6cc(-c8ccccc8O)nnc6N)C7)ccn5)C4)CC3)no2)C(C)C)cc1 (stereo partly drawn) [I-22, (2S,4R)-1-(2-(3-(2-(4-((1r,3r)-3-((4-(3-(3-amino-6-(2-hydroxyphenyl)pyridazin-4-yl)-3,8-diazabicyclo[3.2.1]octan-8-yl)pyridin-2-yl)oxy)cyclobutoxy)piperidin-1-yl)ethoxy)isoxazol-5-yl)-3-methylbutanoyl)-4-hydroxy-N-(4-(4-methylthiazol-5-yl)benzyl)pyrrolidine-2-carboxamide]	> 90	> 1000	> 90	501 to 1000	70 to 90	< 100			
Cc1ncsc1-c1cnc(CNC(=O)[C@@H]2C[C@@H](O)CN2C(=O)[C@@H](NC(=O)[C@H]2CC3(C2)C[C@H](N2CCC(c4ccc(N5C6CCC5CN(c5cc(-c7ccccc7O)nnc5N)C6)cc4)CC2)C3)C(C)(C)C)nc1 (stereo partly drawn) [I-25, (2S,4R)-1-((2S)-2-(6-(4-(4-(3-(3-amino-6-(2-hydroxyphenyl)pyridazin-4-yl)-3,8-diazabicyclo [3.2.1]octan-8-yl)phenyl)piperidin-1-yl)spiro[3.3]heptane-2-carboxamido)-3,3-dimethylbutanoyl)-4-hydroxy-N-((5-(4-methylthiazol-5-yl)pyrimidin-2-yl)methyl)pyrrolidine-2-carboxamide]	< 50	> 1000	< 50	> 1000	< 50	> 1000			
